ChEMBL document CHEMBL3286146, “Prediction of anti-tumor chemical probes of a traditional Chinese medicine formula by HPLC fingerprinting combined with molecular docking” (Eur J Med Chem, 2014)

Experiments:
[1] = Retention time of the compound by chromatography; type: physicochemical
HepG2 [2] = experiment: Anticancer activity against human HepG2 cells assessed as cell viability after 24 hrs by MTT assay; type: functional, cell-based; settings: HepG2, 24 h
[3] = Binding affinity to Bcl-xL (unknown origin); design: species or system Homo sapiens
Tumor necrosis factor = Tumor necrosis factor (Homo sapiens, UniProt P01375); experiment: Binding affinity to TNF-alpha (unknown origin)
Interleukin-2 = Interleukin-2 (Homo sapiens, UniProt P60568); experiment: Binding affinity to IL-2 (unknown origin)
HepG2 [4] = experiment: Anticancer activity against human HepG2 cells assessed as cell viability after 48 hrs by MTT assay; type: functional, cell-based; settings: HepG2, 48 h

Chain of Tumor necrosis factor (P01375 whole entry): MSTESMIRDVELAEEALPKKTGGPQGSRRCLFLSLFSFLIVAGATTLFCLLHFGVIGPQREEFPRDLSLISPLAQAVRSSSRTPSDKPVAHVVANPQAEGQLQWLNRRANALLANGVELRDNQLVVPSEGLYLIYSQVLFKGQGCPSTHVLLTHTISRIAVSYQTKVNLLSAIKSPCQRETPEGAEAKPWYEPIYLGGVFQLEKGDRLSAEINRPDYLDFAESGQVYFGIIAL
Chain of Interleukin-2 (P60568 whole entry): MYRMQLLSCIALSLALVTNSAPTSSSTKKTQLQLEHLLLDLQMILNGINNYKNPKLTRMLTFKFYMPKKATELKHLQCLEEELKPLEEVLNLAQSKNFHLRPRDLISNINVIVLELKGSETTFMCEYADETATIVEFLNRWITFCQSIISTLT

Row | Structure (SMILES) | IC50 (HepG2 [2]) [nM] | Kd [3] [nM] | Kd (Interleukin-2) [nM] | Retention_time [1] [min] | Kd (Tumor necrosis factor) [nM] | IC50 (HepG2 [4]) [nM]
1 | C[C@@H]1CC[C@@]2(OC1)O[C@H]1C[C@H]3[C@@H]4CC=C5C[C@@H](O[C@@H]6O[C@H](CO)[C@@H](O)[C@H](O[C@@H]7O[C@H](CO)[C@@H](O)[C@H](O)[C@H]7O)[C@H]6O)CC[C@]5(C)[C@H]4CC[C@]3(C)[C@H]1[C@@H]2C |  |  |  | 16.9 |  | 
2 | CC(CC(=O)C[C@@H](C)[C@H]1CC(=O)[C@@]2(C)C3=C(C(=O)[C@@H](O)[C@]12C)[C@@]1(C)CC[C@H](O)C(C)(C)[C@@H]1C[C@@H]3O)C(=O)O (stereo partly specified) [GANODERIC ACID G] |  |  |  | 46.5 |  | 85600
3 | CC(=O)O[C@@H]1C(=O)C2=C(C(=O)C[C@H]3C(C)(C)C(=O)CC[C@]23C)[C@]2(C)C(=O)C[C@H]([C@H](C)CC(=O)CC(C)C(=O)O)[C@@]12C (stereo partly specified) [GANODERIC ACID F] | 19600 |  |  | 54.4 | 2.69 | 
4 | C[C@H](CC(=O)C[C@@H](C)[C@H]1C[C@H](O)[C@@]2(C)C3=C(C(=O)C[C@]12C)[C@@]1(C)CCC(=O)C(C)(C)[C@@H]1C[C@@H]3O)C(=O)O [GANODERIC ACID A] |  |  |  | 50.4 | 8.53 | 38700
5 | CC(C)(O)[C@@H]1CC[C@](C)([C@H]2[C@@H](O)C[C@@]3(C)[C@@H]4C[C@H](O[C@@H]5O[C@H](CO)[C@@H](O)[C@H](O)[C@H]5O)[C@H]5C(C)(C)[C@@H](O[C@@H]6OC[C@@H](O)[C@H](O)[C@H]6O)CC[C@@]56C[C@@]46CC[C@]23C)O1 |  | 0.126 |  | 28.6 |  | > 100000
6 | C[C@H](CCC=C(CO)CO)[C@H]1CC[C@@]2(C)C3=CC[C@H]4C(C)(C)C(=O)CC[C@]4(C)C3=CC[C@]12C [GANODERIOL F] |  |  |  | 10.3 | 16.8 | 20700
7 | O=c1cc(-c2ccc(O)c(O)c2)oc2cc(O)cc(O)c12 [LUTEOLIN] | 80800 |  |  | 38.1 |  | 
8 | COc1ccc(-c2coc3cc(O)ccc3c2=O)cc1O [CALYCOSIN] |  |  |  | 34.5 |  | > 100000
9 | C[C@H](CC(=O)C[C@@H](C)[C@H]1C[C@H](O)[C@@]2(C)C3=C(C(=O)C[C@]12C)[C@@]1(C)CC[C@H](O)C(C)(C)[C@@H]1C[C@@H]3O)C(=O)O [GANODERIC ACID C2] |  |  |  | 49.8 | 8.39 | > 100000
10 | CC(CC(=O)C[C@@H](C)[C@H]1CC(=O)[C@@]2(C)C3=C(C(=O)C[C@]12C)[C@@]1(C)CCC(=O)C(C)(C)[C@@H]1C[C@@H]3O)C(=O)O (stereo partly specified) [GANODERIC ACID D] |  |  |  | 45.7 | 18.6 | 22900
11 | COc1ccc(-c2coc3cc(O[C@@H]4O[C@H](CO)[C@@H](O)[C@H](O)[C@H]4O)ccc3c2=O)cc1O |  | 110 | 35.6 | 26.4 | 1820 | > 100000
12 | CC(CC(=O)C[C@@H](C)[C@H]1CC(=O)[C@@]2(C)C3=C(C(=O)C[C@]12C)[C@@]1(C)CC[C@H](O)C(C)(C)[C@@H]1C[C@@H]3O)C(=O)O (stereo partly specified) [GANODERIC ACID B] |  |  |  | 47.5 | 8.81 | 97400
13 | CC(=O)O[C@H]1CC[C@]2(C)[C@H]3CC=C4[C@@H]5CC(C)(C)CC[C@]5(C(=O)O)CC[C@@]4(C)[C@]3(C)CC[C@H]2C1(C)C [ACETYL OLEANOLIC ACID] |  |  |  | 39.8 |  | > 100000
14 | CC(=O)O[C@@H]1C(=O)C2=C(C(=O)C[C@H]3C(C)(C)[C@@H](O)CC[C@]23C)[C@]2(C)C(=O)C[C@H]([C@H](C)CC(=O)CC(C)C(=O)O)[C@@]12C (stereo partly specified) [GANODERIC ACID H] |  |  |  | 51.1 | 2.45 | 70300

Now from value to compound, other results behind:

Row | IC50 (HepG2 [2]) [nM] | Kd [3] [nM] | Kd (Interleukin-2) [nM] | Structure (SMILES) | Retention_time [1] [min] | Kd (Tumor necrosis factor) [nM] | IC50 (HepG2 [4]) [nM]
15 | 90600 | 76.2 |  | O=c1cc(-c2ccc(O)cc2)oc2cc(O[C@@H]3O[C@H](CO)[C@@H](O)[C@H](O)[C@H]3O)cc(O)c12 [APIGETRIN] | 28.6 | 200 | 
16 | 20800 | 9.89 | 20 | O=c1cc(-c2ccc(O)c(O)c2)oc2cc(O[C@@H]3O[C@H](CO)[C@@H](O)[C@H](O)[C@H]3O)cc(O)c12 [GALUTEOLIN] | 31.2 | 790 | 
17 |  | 170 | 120 | COc1ccc(-c2coc3cc(O[C@@H]4O[C@H](CO)[C@@H](O)[C@H](O)[C@H]4O)ccc3c2=O)cc1 [ONONIN] | 39.3 |  | 40800
18 | 60500 | 7750 | 5470 | COc1ccc(-c2coc3cc(O)ccc3c2=O)cc1 [FORMONONETIN] | 48.5 |  | 
19 | 61200 |  | 3380 | O=c1c(-c2ccc(O)cc2)coc2cc(O[C@@H]3O[C@H](CO)[C@@H](O)[C@H](O)[C@H]3O)ccc12 [DAIDZIN] | 8.61 |  | 
20 | 12500 |  |  | COc1cccc2c1C(=O)c1c(O)c3c(c(O)c1C2=O)C[C@@](O)(C(=O)CO)C[C@@H]3O[C@H]1C[C@H](N)[C@H](O)[C@H](C)O1 [DOXORUBICIN] |  |  | 
21 | 30300 |  | 0.0289 | C[C@@H]1CC[C@@]2(OC1)O[C@H]1C[C@H]3[C@@H]4CC=C5C[C@@H](O[C@@H]6O[C@H](CO)[C@@H](O)[C@H](O)[C@H]6O)CC[C@]5(C)[C@H]4CC[C@]3(C)[C@H]1[C@@H]2C [DISOGLUSIDE] |  |  | 
22 |  | 2.4 | 2.59 | C/C=C1\[C@H](O[C@@H]2O[C@H](CO)[C@@H](O)[C@H](O)[C@H]2O)OC=C(C(=O)OC)[C@H]1CC(=O)OC[C@H]1O[C@@H](OCCc2ccc(O)cc2)[C@H](O)[C@@H](O)[C@@H]1O | 13.5 |  | > 100000
23 |  | 810 |  | O=C(NS(=O)(=O)c1ccc(NCCSc2ccccc2)c([N+](=O)[O-])c1)c1ccc(-c2ccc(F)cc2)cc1 |  |  | 
